The supplement of paper PMC11208160

Test: recombinant barcode read abundance after kanamycin selection (control-corrected) (log10(CPM+1)); higher = more efficient recombination; sequences stand for … in AGTGCAGAGAAAATCGGCCAGTTTTCTCTGCCTGCAGTCCGCATGCCGT…AGATTTATGCAGCGGACTGCCTTTCTCCCAAAGTGATAAACCGGACAGTATCATGGACCGGTTTTCCCGGTAATCCGTATTTGCAAGGTTGGTTTCACT; site = the 11-nt target
Outline: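 In E. coli, a pooled library matched targets to IS621 bridge RNA target-binding loops and was introduced alongside a donor plasmid. Cells went onto chloramphenicol/ampicillin/kanamycin with 0.1 mM IPTG or onto chloramphenicol/ampicillin LB agar as control, in duplicate. Recombination efficiency, from recombinant-junction barcodes as counts per million, is averaged and control-corrected. It is reported as log10(CPM+1).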
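Further: IS621 recombinase and bridge RNA in Escherichia coli cells.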

Sequence | recombinant barcode read abundance (log10)
CGAATCTCTTGGGTTCTAACCTGTTGCCT (site CGAATCCCTAG) | 0.221
CGAATCTCTTGGGTTCTAACCTGTTGCCT (site CGAATCGCTAG) | 0
CGAATCTCTTGGGTTCTAACCTGTTGCCT (site CGAATCTCTAG) | 0.616
CGAATGTCTTGGGTTCTAACCTGTTGCTG (site CGAATGTCTCA) | 1.2
CGAATGTCTTGGGTTCTAACCTGTTGCTG (site GGTATGTCTCA) | 0.202
CGACTCCCTTGGGTTCTAACCTGTTGCGT (site CGACTCCCTAC) | 1.14
CGACTCCCTTGGGTTCTAACCTGTTGCGT (site GTCAAGTCTGA) | 0.391
CGACTGTCTTGGGTTCTAACCTGTTGCCT (site AAGTACACTCA) | 0.0207
CGACTGTCTTGGGTTCTAACCTGTTGCCT (site CGACTGTCTAG) | 1.92
CGAGAACCTTGGGTTCTAACCTGTTGCCT (site AGAGAACCTAG) | 0.0999
CGAGAACCTTGGGTTCTAACCTGTTGCCT (site CGAGAACCTAG) | 1.67
CGAGAACCTTGGGTTCTAACCTGTTGCCT (site GGAGAACCTAG) | 0.0316
CGAGAACCTTGGGTTCTAACCTGTTGCCT (site TGAGAACCTAG) | 0.12
CGAGCAACTTGGGTTCTAACCTGTTGCTT (site CGAGCAACTAA) | 0.0517
CGAGCAACTTGGGTTCTAACCTGTTGCTT (site CGTGTAACTAA) | 0.181
CGAGCTCCTTGGGTTCTAACCTGTTGCAT (site CGAGCTCCTAA) | 0.0507
CGAGCTCCTTGGGTTCTAACCTGTTGCAT (site CGAGCTCCTAC) | 0.154
CGAGCTCCTTGGGTTCTAACCTGTTGCAT (site CGAGCTCCTAG) | 0.425
CGAGCTCCTTGGGTTCTAACCTGTTGCAT (site CGAGCTCCTAT) | 1.86
CGAGCTCCTTGGGTTCTAACCTGTTGCCC (site CGAGCTCCTGG) | 0.591
CGAGCTCCTTGGGTTCTAACCTGTTGCCC (site GGAGCTCCTTG) | 0.512
CGAGCTCCTTGGGTTCTAACCTGTTGCTT (site CGAGCTCCTAA) | 0.324

Sequence | recombinant barcode read abundance (log10)
CGAGCTCCTTGGGTTCTAACCTGTTGCTT (site CGAGCTCCTAC) | 0.0191
CGAGCTCCTTGGGTTCTAACCTGTTGCTT (site CGAGCTCCTAG) | 1.1
CGAGCTCCTTGGGTTCTAACCTGTTGCTT (site CGAGCTCCTAT) | 0.337
CGAGGGGCTTGGGTTCTAACCTGTTGCCT (site CGAGGGACTAG) | 0.127
CGAGGGGCTTGGGTTCTAACCTGTTGCCT (site CGAGGGCCTAG) | 0.0526
CGAGGGGCTTGGGTTCTAACCTGTTGCCT (site CGAGGGGCTAG) | 0.369
CGAGGGGCTTGGGTTCTAACCTGTTGCCT (site CGAGGGTCTAG) | 0.35
CGATAGCCTTGGGTTCTAACCTGTTGCCT (site AGATAGCCTAG) | 0.024
CGATAGCCTTGGGTTCTAACCTGTTGCCT (site CGATAGCCTAG) | 0.643
CGATAGCCTTGGGTTCTAACCTGTTGCCT (site GGATAGCCTAG) | 0.132
CGATAGCCTTGGGTTCTAACCTGTTGCCT (site TGATAGCCTAG) | 0
CGATCTACTTGGGTTCTAACCTGTTGCAG (site AAGGGGCCTAG) | 0.23
CGATCTACTTGGGTTCTAACCTGTTGCAG (site CGATCTACTCT) | 0.0308
CGATTAACTTGGGTTCTAACCTGTTGCCT (site CGATTAACTAG) | 0.139
CGATTAACTTGGGTTCTAACCTGTTGCCT (site CGATTACCTAG) | 0.361
CGATTAACTTGGGTTCTAACCTGTTGCCT (site CGATTAGCTAG) | 0.107
CGATTAACTTGGGTTCTAACCTGTTGCCT (site CGATTATCTAG) | 0.0439
CGCAAATCTTGGGTTCTAACCTGTTGCCT (site CGAAAATCTAG) | 0.0245
CGCAAATCTTGGGTTCTAACCTGTTGCCT (site CGCAAATCTAG) | 0.0815
CGCAAATCTTGGGTTCTAACCTGTTGCCT (site CGGAAATCTAG) | 0.0907
CGCAAATCTTGGGTTCTAACCTGTTGCCT (site CGTAAATCTAG) | 0.166
CGCCACCCTTGGGTTCTAACCTGTTGCCT (site CGCCACCCTAG) | 0.165

Sequence | recombinant barcode read abundance (log10)
CGCCACCCTTGGGTTCTAACCTGTTGCCT (site CTGCACCCTAG) | 0.0944
CGCCCGCCTTGGGTTCTAACCTGTTGCCT (site AGCCCGCCTAG) | 0.165
CGCCCGCCTTGGGTTCTAACCTGTTGCCT (site CGCCCGCCTAG) | 0.0631
CGCCCGCCTTGGGTTCTAACCTGTTGCCT (site GGCCCGCCTAG) | 0.109
CGCCCGCCTTGGGTTCTAACCTGTTGCCT (site TGCCCGCCTAG) | 0.0262
CGCCCTACTTGGGTTCTAACCTGTTGCTT (site CGCCCTACTAA) | 0.311
CGCCCTACTTGGGTTCTAACCTGTTGCTT (site CGCCTAACTAA) | 0.491
CGCCTAACTTGGGTTCTAACCTGTTGCTT (site CGCCCTACTAA) | 0.0705
CGCCTAACTTGGGTTCTAACCTGTTGCTT (site CGCCTAACTAA) | 0.126
CGCCTCCCTTGGGTTCTAACCTGTTGCAT (site CGCCTCCCTAT) | 0.159
CGCCTCCCTTGGGTTCTAACCTGTTGCAT (site GGCCTCCCTAT) | 0
CGCGATCCTTGGGTTCTAACCTGTTGCGT (site AGCGACCCTAC) | 0.0431
CGCGATCCTTGGGTTCTAACCTGTTGCGT (site CGCGATCCTAC) | 0.834
CGCGCTCCTTGGGTTCTAACCTGTTGCCT (site CGCGATCCTAG) | 0.0445
CGCGCTCCTTGGGTTCTAACCTGTTGCCT (site CGCGCTCCTAG) | 0.245
CGCGCTCCTTGGGTTCTAACCTGTTGCCT (site CGCGGTCCTAG) | 0.0941
CGCGCTCCTTGGGTTCTAACCTGTTGCCT (site CGCGTTCCTAG) | 0.0658
CGCTTACCTTGGGTTCTAACCTGTTGCCT (site AGCTTACCTAG) | 0.143
CGCTTACCTTGGGTTCTAACCTGTTGCCT (site CGCTTACCTAG) | 0.0899
CGCTTACCTTGGGTTCTAACCTGTTGCCT (site GGCTTACCTAG) | 0.0208
CGCTTACCTTGGGTTCTAACCTGTTGCCT (site TGCTTACCTAG) | 0.192
CGCTTGTCTTGGGTTCTAACCTGTTGCCG (site CGCTTGTCTCG) | 0.134

Sequence | recombinant barcode read abundance (log10)
CGCTTGTCTTGGGTTCTAACCTGTTGCCG (site CTCTTGTCTTG) | 0.0615
CGGACGCCTTGGGTTCTAACCTGTTGCCT (site CGGACGACTAG) | 0.352
CGGACGCCTTGGGTTCTAACCTGTTGCCT (site CGGACGCCTAG) | 0.892
CGGACGCCTTGGGTTCTAACCTGTTGCCT (site CGGACGGCTAG) | 1.51
CGGACGCCTTGGGTTCTAACCTGTTGCCT (site CGGACGTCTAG) | 0.25
CGGACTTCTTGGGTTCTAACCTGTTGCCT (site CAGACTTCTAG) | 0.182
CGGACTTCTTGGGTTCTAACCTGTTGCCT (site CCGACTTCTAG) | 0.049
CGGACTTCTTGGGTTCTAACCTGTTGCCT (site CGGACTTCTAG) | 0.0521
CGGACTTCTTGGGTTCTAACCTGTTGCCT (site CTGACTTCTAG) | 0.0412
CGGAGAGCTTGGGTTCTAACCTGTTGCCT (site CAGAGAGCTAG) | 0.402
CGGAGAGCTTGGGTTCTAACCTGTTGCCT (site CCGAGAGCTAG) | 0.433
CGGAGAGCTTGGGTTCTAACCTGTTGCCT (site CGGAGAGCTAG) | 1.83
CGGAGAGCTTGGGTTCTAACCTGTTGCCT (site CTGAGAGCTAG) | 0
CGGAGCCCTTGGGTTCTAACCTGTTGCCT (site CAAAGCCCTAG) | 0.0117
CGGAGCCCTTGGGTTCTAACCTGTTGCCT (site CGGAGCCCTAG) | 1.27
CGGATCCCTTGGGTTCTAACCTGTTGCCT (site CAGATCCCTAG) | 0.555
CGGATCCCTTGGGTTCTAACCTGTTGCCT (site CCGATCCCTAG) | 0.159
CGGATCCCTTGGGTTCTAACCTGTTGCCT (site CGGATCCCTAG) | 1.39
CGGATCCCTTGGGTTCTAACCTGTTGCCT (site CTGATCCCTAG) | 0.284
CGGCGTACTTGGGTTCTAACCTGTTGCCT (site CGACGTACTAG) | 0.14
